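These data come from cells grown in 96-well plates and exposed to compound for 48 hours at five concentrations. Definition used: TGI = concentration required for complete inhibition of growth.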
How the values were obtained:
Experiment in all cases: inhibition of tumour cell growth, NCI panel, 48 h
BT-549 breast = tested on: BT-549 breast
DU-145 prostate = tested on: DU-145 prostate
HT29 colon = tested on: HT29 colon
LOX IMVI melanoma = tested on: LOX IMVI melanoma
MDA-MB-435 = tested on: MDA-MB-435
NCI/ADR-RES ovarian = tested on: NCI/ADR-RES ovarian
OVCAR-5 ovarian = tested on: OVCAR-5 ovarian
SF-539 CNS = tested on: SF-539 CNS
SNB-19 CNS = tested on: SNB-19 CNS
U251 CNS = tested on: U251 CNS

Structure (SMILES)	TGI (BT-549 breast) [µM]	TGI (DU-145 prostate) [µM]	TGI (HT29 colon) [µM]	TGI (LOX IMVI melanoma) [µM]	TGI (MDA-MB-435) [µM]	TGI (NCI/ADR-RES ovarian) [µM]	TGI (OVCAR-5 ovarian) [µM]	TGI (SF-539 CNS) [µM]	TGI (SNB-19 CNS) [µM]	TGI (U251 CNS) [µM]
COc1cccc(OC/C(N=Cc2ccncc2)=N/NC(=O)c2ccncc2)c1	> 100	> 100	> 100	> 100	> 100	> 100	> 100	> 100	> 100	> 100
CCCCN(CCCC)C1=Nc2ccccc2-n2c(nnc2C(=O)OCC)C1		> 100	> 100	> 100	> 100	> 100	> 100	> 100	> 100	
COc1c(-c2ccc(F)cc2)oc2cc(O)cc(O)c2c1=O		96.5	44.6	54.5	93.8	63.5	80.5	39.7	> 100	97.5
COC(=O)c1c(C)cccc1C1CN=NC12Cc1cccc(C)c1C2=O (centres undefined)	88.6	> 100	> 100	32.7	> 100	> 100	> 100	44.5	> 100	> 100
COC(C/C=C\C=C\CC/C=C/CC(C)/C=C/C(=C\C(=O)O)CC(=O)O)/C(C)=C\C=C(/C)C(=O)O (centres undefined)	> 100	> 100	> 100		> 100		> 100		> 100	> 100
CCC(=O)Nc1ccc(N2C(=O)/C(=C/c3ccc(O)c(OC)c3)N=C2c2ccccc2)cc1	44.9	> 100	> 100	> 100	> 100	> 100	> 100	> 100	> 100	
O=P1(N(CCCl)CCCl)NCCCO1 (centres undefined)	> 250	> 250	> 231	> 250	> 250	> 250	> 238	> 250	> 250	> 250
O=c1[nH]nc(N/N=C\c2ccc(Cl)cc2)c2ccccc12		72	> 100		32.4	39	31.8	47.6	43.1	38.2
C/C(=C\COP(=O)(O)OP(=O)(O)O)CC/C=C(\C)CNc1ccccc1	44.5	> 50	> 50	> 50	> 50	> 50	> 50	> 50	> 50	> 50
C=C1CN=C(Nc2ccc(F)cc2F)S1		> 100	> 100	49.2		> 100	> 100	> 100	> 100	> 100
NNc1nnc(-c2ccccc2)nc1Cc1ccccc1			> 100	30.5			> 100	64.1	> 100	> 100
COc1ccc(C(=O)/C=C/c2ccc(OCCCOc3ccc(/C=C/C(=O)c4ccc(OC)c(OC)c4)cc3)cc2)cc1OC		> 100	> 100		> 100	> 100		> 100	> 100	> 100
CCOC(=O)COC1=Nc2cc(OC)c(OC)c3nc(Cl)cc(c23)C1=O	3.45	3.32	6.37	4.23	2.93	> 31.4	4.11	3.87	22.1	8.49
COc1ccc(C2C3=CONC3CC3CCCCC32)cc1 (centres undefined)	> 100		> 100	> 100	> 100		> 100		> 100	> 100
S=c1oc(CCCCCCCCc2nn(CNc3ccc(Cl)cc3)c(=S)o2)nn1CNc1ccc(Cl)cc1	> 100	> 100	> 100		> 100	> 100	> 100		> 100	> 100
CCOC(=O)/C(C1=N[C@H](C(=O)OCC)CS1)=C(\O)c1ccccc1			> 100	> 100			> 100		> 100	> 100
CCCOC1OC(CS(=O)(=O)O)C(OC(C)=O)C(OC(C)=O)C1OC(C)=O (centres undefined)	> 100	> 100	> 100	> 100	> 100	> 100	> 100		> 100	> 100
Nc1cc2ncnc(Nc3cccc(Br)c3)c2cn1	> 100		> 100	> 100	> 100	> 100	> 100	> 100	> 100	> 100
Cc1c(Cl)c(=O)oc2cc(OCC(O)COC(C)C)ccc12 (centres undefined)		> 100	> 100	> 100	> 100	> 100	> 100		> 100	> 100
O=c1oc2ccccc2c(O)c1C(c1ccc(O)cc1)c1c(O)c2ccccc2oc1=O	> 100	> 100	> 100	> 100	> 100	> 100			> 100	> 100
O=[N+]([O-])c1cccc([N+](=O)[O-])c1Cl		11.4	45.1	6.88	35.3	57.4	43.1	35	33.2	25.8
O=C1c2ccccc2C2(c3ccc(Cl)cc3)N[C@@H]3CCCC[C@@H]3N12 (some centres undefined)	> 100	> 100		> 100	> 100		> 100	> 100	> 100	> 100
COc1ccc2c3c([nH]c2c1)-c1nc2ccccc2c(=O)n1CC3					> 25	> 25	> 25	> 25	> 25	> 25

From PubChem BioAssay (NCI)
